In US20230263789A1, “PHARMACEUTICAL COMPOSITION AND PREPARATION METHOD” (JIANGSU KANION PHARMACEUTICAL CO., LTD., priority 2020, published 2023):
Counter-ions that a name gives are not always drawn.

Experiment: Preliminary test: dissolution of compound A with an acidic regulator
Assay type: physicochemical
Conditions: with an acidic regulator (citric acid or tartaric acid)
From the text: To improve the solubility of insoluble medicines, surfactants, acid-base regulators and the like are mostly used in the prior art. […] However, the granules obtained in the preliminary study process can solve the problem of solubility, but the stability is insufficient. Therefore, how to improve the solubility of the active substance provided by the present invention and ensure the stability has become a difficult point in a medicine technology.

With `CCn1nnc(-c2ccc(OCCC(C)(C)CCN3CCN(c4ccnc(N)c4)S3(=O)=O)nc2)n1` [compound A, 2-(2-aminopyridine-4-yl)-5-(5-((5-(2-ethyl-2H-tetrazole-5-yl)pyridine-2-yl)-oxy)-3,3-amyldimethyl)-1,2,5-thiadiazolidin 1,1-dioxide hydrochloride] the “Dissolution of compound A” value was “complete dissolution”.
